Data as given in patent US20100092453A1, “Method of producing porous microparticles” (priority 2006, published 2010).

Experiments:
[1] = Suspension sedimentation analysis (water/Tween 80); assay type: physicochemical; conditions: water/Tween 80 (96:4 v/v)
Description: Sedimentation analysis was carried out on suspensions of bendroflumethiazide (BFMT) and sulfadimidine. 25 ml suspensions were prepared by mixing water and Tween 80 (96:4 v/v) with 150 mg of the drug powder. The suspensions were transferred to 25 ml graduated cylinders, mixed thoroughly and their sedimentation observed over time.

[2] = Density measurements (bulk, tap, Carr's compressibility index); assay type: physicochemical
Description: Dublin 12) with a funnel. The weight of the powder required to fill the 1 ml graduated syringe was recorded to calculate bρ. […] The resultant volume was recorded [NT]ρ. Each measurement was performed in triplicate. The Carr's compressibility index of some of the systems was calculated from the following equation: compressibility index(%)=[(tap density-bulk density)/tap density]×100 Lower values of the index are desirable as they indicate better flow.

[3] = Suspension stability of MDI systems in HFA-134a; assay type: physicochemical; conditions: BFMT in HFA-134a
Description: In order to prepare metered dose inhalers, 20 mg of powder was weighed into glass vials. Afterwards a 25 μl metering valve (Bespak, UK) was crimped onto the glass vial and the liquid propellant HFA-134a was added through the nozzle. The final weight of each MDI (without the container and metering valve) was 10 g. The last two steps were performed using a Pamasol P 2016 aerosol filling station (Pamasol Willi Mader AG, Pfäffikon, Switzerland). Prepared MDIs were homogenised in a Bransonic 220 ultrasonic bath (UK) for 1 min.

[4] = In vitro dry powder inhaler deposition, Andersen Cascade Impactor
Description: The pulmonary deposition of the dry powders was investigated using an Andersen Cascade Impactor (ACI) (1 ACFM Eight Stage Non-Viable Cascade Impactor, Graseby Andersen, Atlanta, Ga.). […] Size 3 hard gelatin capsules (Farillon Ltd., U.K.) were filled to approximately 50% with the dry powder (approximately 25 mg of powder). […] The amount of powder deposited on each stage of the impactor was determined by weight, UV analysis or HPLC analysis.

sedimentation of powder particles in suspension (observation) ([1]; observed up to four hours)	bulk density [2]	tap density [2]	sedimentation in MDI after 4 hours ([3]; 4 hours)	sedimentation in MDI after seven days ([3]; 7 days)	mass median aerodynamic diameter (MMAD) [4]	time to completely settle in suspension [1]	compressibility index ([2]; Carr's index from tap and bulk density)	SMILES
completely settle in a matter of seconds	0.29 g/mL	0.58 g/mL	noticeable sedimentation	completely settled	–	–	–	NS(=O)(=O)c1cc2c(cc1C(F)(F)F)NC(Cc1ccccc1)NS2(=O)=O (stereo not shown) [raw BFMT, bendroflumethiazide]
–	0.341 ± 0.024 g/mL	0.661 ± 0.023 g/mL	–	–	–	–	–	O=C(O)c1cc(=O)c2c(OCC(O)COc3cccc4oc(C(=O)O)cc(=O)c34)cccc2o1 [sodium cromoglycate]
–	–	–	–	–	14.4±4.9 μm	≤ 30 min	50.3%	Cc1cc(C)nc(NS(=O)(=O)c2ccc(N)cc2)n1 [Micronised sulfadimidine, sulfadimidine]
